Tests used:
HepG2 cells = assay: Pulse-chase analysis of protein secretion in HepG2 cells; type: cell-based, human; settings: HepG2; 100 nM Ipom-F or 42 nM mycolactone 13.5 h; 100 nM bortezomib 2 h
Experimental: Pulse‐Chase Analysis of Protein Secretion in HepG2 Cells
The secretion assay was performed using a pulse–chase approach as described previously.20 HepG2 cells were treated with DMSO, 100 nM compound 8, 100 nM Ipom-F or […] mycolactone for 13.5 h before initiating the experiment, whereas pre-treatment with bortezomib 100 nM (Stratech) or 2.5 μg/ml brefeldin A were performed for 2 h and 1 h, respectively. Cells were starved in Met‐ and Cys‐free DMEM (Invitrogen) for 20 min at 37°C. Labeling was initiated by addition of fresh starvation medium containing […] [35S]Met and [35S]Cys protein labeling mix (Perkin Elmer; specific activity >1,000 Ci/mmol) for 15 min. After washing with PBS, cells were incubated in serum‐free DMEM supplemented with excess unlabeled L‐Met and L‐Cys (2 mM final concentration) for 2 h. The compounds were included throughout the starvation, pulse and chase. Secreted proteins in the media were recovered by precipitation with 13% trichloroacetic acid, washed in acetone and dissolved in 2x sample buffer. Cells were solubilized with Triton X‐100 lysis buffer (20 mM Tris, pH 7.5, 150 mM NaCl, 1% TX-100, 1 mM EDTA, 1 mM EGTA) supplemented with protease inhibitor cocktail and phenylmethylsulfonyl fluoride. Equal amounts

MCF7 = assay: MTT cytotoxicity assay, MCF7; type: cell-based, human; settings: Homo sapiens; MCF7, 72 h, MTT; read-out: Cytotoxicity (IC50)
Experimental: Two human breast cancer cell lines (MDA-MB-231 and MCF7) and one human breast non-tumorigenic epithelial cell line (MCF-10A) were maintained in a DMEM high glucose culture medium supplemented with 10% fetal bovine serum (FBS) and 2 mM L-glutamine. The cells were grown in a humidified atmosphere of 5% CO2 and 95% air at 37 °C . The culture medi um w as changed every 2–4 days depending on cell density. Cell cultures were passaged once a week using 0.125% trypsin-EDTA to detach the cells from culture flasks/dishes.
The human colorectal cancer cell line HCT116 was maintained in McCoy’s 5A (modified) medium supplemented with 10% fetal bovine serum (FBS). The human embryonic kidney (HEK293T and HEK293 FRT TRex) cell line was maintained in DMEM high glucose culture medium supplemented with 10% fetal bovine serum (FBS).
HepG2 cells were cultured in DMEM supplemented with 10% fetal bovine serum and 2 mM L-glutamine at 37°C under 5% CO2.
Viable cells were counted with a hemocytometer immediately before each experiment. Experiments were done in triplicate. First, 100 μL of MCF7 cells at the density of 50,000 cells/mL were seeded in a 96-well plate (5,000 cells/well), which was incubated at 37 °C and 5% CO2 atmosphere for 24 h. The compounds were dissolved in DMSO (dimethyl sulfoxide) to make drug stocks (10 mM). The stock solutions were diluted with the complete DMEM high glucose culture medium to make a series of gradient fresh working solutions right before each test. Subsequently, the cells were treated with 100 μL of the freshly made gradient working solution in a total volume of 200 μL/well for 72 h. After that, the media were discarded and 200 μL of the fresh complete medium containing 10% of MTT stock solution (5 mg/mL) was added to each well. The plate was then incubated at 37 °C and 5% CO2 for 3 h. Next, 180 μL of the medium was discarded from each well , and 180 μL of DMSO was added to each well to dissol ve formazan crystals. Absorbance of formazan was detected by a microplate reader (BioTek Synergy H1) at 570 nm with 650 nm as the reference wavelength. The percentage of viability compared to the negative control (DMSO-treated cells) was determined . GraphPad Prism 6 software was used to make a plot of %

[1] = AlamarBlue cytotoxicity assay, MCF-10A; type: cell-based, human; settings: human, 72 h
Experimental: (§1) AlamarBlue Cytotoxicity Assay
(§2) MDA-MB-231, MCF-10A and HCT116. Viable cells were counted with a hemocytometer immediately before each experiment . Experiments were done in triplicate. First, 100 μL of MDA-MB-231 cells or MCF-10A cells at the density of 50,000 cells/mL was seeded in a 96-well plate (5,000 cells/well) and then incubated at 37 °C and 5% CO2 for 24 h. The compounds were dissolved in DMSO (dimethyl sulfoxide) to make drug stocks (10 mM). The stock solutions were diluted with the complete DMEM high glucose culture medium to make a series of gradient fresh working solutions right before each test. Subsequently, the cells were treated with 100 μL of the freshly made gradient working solution in a total volume of 200 μL/well for 72 h. After that, the media were discarded and 200 μL of the fresh complete medium containing 10% of AlamarBlue (resazurin) stock solution was added to each well. The plate was then incubated at 37 °C and 5% CO2 for another 3 h. Emission of each well at 620 nm was detected by a microplate reader (BioTek Synergy H1) at excitation 580 nm. […]
(§3) Microplate Reader. The percentage of viability compared to the negative control (DMSO-treated cells) […]
(§4) was determined. […]

MDA-MB-231 = assay: AlamarBlue cytotoxicity assay, MDA-MB-231; type: cell-based, human; settings: Homo sapiens; MDA-MB-231, 72 h, AlamarBlue; read-out: Cytotoxicity (IC50)
Experimental: as §1, §2, §3, §4

HCT116 = assay: cells; type: cell-based; settings: Homo sapiens, HCT-116; HCT116, 72 h, Alamar Blue, assayed separately; read-out: Cytotoxicity (IC50)
Experimental: as §1
as §2, with “nm. For HCT116 WT and mutant lines, cells were seeded at 1000 cells/ well in complete McCoys medium. Compounds were diluted from a DMSO stock into culture medium as described above. Cells were treated for 96 h, then viability measured with AlamarBlue, detected using the conditions described but with a BMG Fluostar Optima Microplate Reader. The percentage of viability compared to the negative control (DMSO-treated cells) was determined.” for “nm.”
HCT116 and HEK293T. Viable cells were counted using an automated cell counter (BioRad TC20) before each experiment. […] Emission of each well at 620 nm was detected by a microplate reader (Perkin Elmer EnSpire) at excitation 580 nm. The percentage of viability compared to the negative control (DMSO -treated cells) was determined. […]
Figure S1. […] (C) HCT116 colon carcinoma cells were treated with increasing concentrations of analogues 8, 14, 15, CT8, ipomoeassin F or carrier (0.1% DMSO) and cell viability was assessed at 72 h by the Alamar Blue assay (mean ± S.D., n = 4). […]

HCT-116 cells = assay: Metabolic labelling of nascent proteins in HCT116 cells; type: cell-based, human; settings: HCT-116, 1 μM, 35S labelling
Experimental: Metabolic Labelling Assays in HCT116 Cells
HCT116 cells were counted using an automated cell counter (BioRad TC20) immediately prior to each experiment. 3 ml of HCT116 cells at a density of 0.166x10^6 cells/mL were seeded to 6-well plates (0.5x10^6 cells/well) and then incubated at 37 °C and 5% CO 2 for 24 h. The compounds were dissolved in DMSO to make drug stocks (10 mM). The stock solutions were diluted with DMEM high glucose culture medium lacking methionine and cysteine to make a fresh working solution immediately prior to each test. Cells were washed twice and 1ml of fresh DMEM lacking methionine and cysteine was added to each well.
Subsequently, the cells were treated with 250 µl of compound solutions in a total volume of 1 ,250 µl/well.
The plate was then incubated at 37 °C and 5% CO 2 for 30 min before 100 µCi 35S-labelled methionine/cysteine was added (Expre35s35s protein labelling mix). Plates were incubated for a further 30 min, then media collected and cells harvested by scraping after four washes in ice-cold PBS. Total protein was acquired by RIPA extraction from the cell pellet, cytoplasmic fraction was acquired by partial permeabilization of the outer cell membranes with 0.15% Digitonin followed by centrifugation, secreted proteins were acquired by TCA precipitation of the media. […]

| Compound | secretory proteins in cell media (HepG2 cells) | IC50 (MCF7) | IC50 [1] | IC50 (MDA-MB-231) | IC50 (HCT116) | inhibition of production of secreted proteins compared with ipomoeassin F (HCT-116 cells) |
| --- | --- | --- | --- | --- | --- | --- |
| CC(C)C[C@H](NC(=O)[C@H](Cc1ccccc1)NC(=O)c1cnccn1)B(O)O [bortezomib, reference compound] | had no effect |  |  |  |  |  |
| C#CCOc1ccc(/C=C/C(=O)O[C@@H]2[C@@H](O)[C@@H]3O[C@H]4[C@H](O[C@@H](CCCCC)CCCCCCC(=O)CCC(=O)OC[C@@H](O3)[C@H]2OC(=O)/C(C)=C/C)O[C@H](C)[C@H](OC(C)=O)[C@@H]4O)cc1 [compound 3] |  | 22.2 nM | 9.6 nM | 6.3 nM |  |  |
| C/C=C(\C)C(=O)O[C@@H]1[C@@H](O)[C@@H]2O[C@H]3[C@H](O[C@@H](CCCCC)CCCCCCC(=O)CCC(=O)OC[C@@H](O2)[C@H]1OC(=O)/C=C/c1ccc(OCc2cn(-c4cc5ccc(O)cc5oc4=O)nn2)cc1)O[C@H](C)[C@H](OC(C)=O)[C@@H]3O [compound 10] |  | 172 nM | 11.3 nM | 8.9 nM |  |  |
| C/C=C(\C)C(=O)O[C@@H]1[C@@H](O)[C@@H]2O[C@H]3[C@H](O[C@@H](CCCCC)CCCCCCC(=O)CCC(=O)OC[C@@H](O2)[C@H]1OC(=O)/C=C/c1ccc(OCc2cn(CCOCCOCCOCCNc4ccc([N+](=O)[O-])c5nonc45)nn2)cc1)O[C@H](C)[C@H](OC(C)=O)[C@@H]3O [compound 11] |  | 21.1 nM | 2 nM | 2.8 nM |  |  |
| CCCCC[C@H]1CCCCCCC(=O)CCC(=O)OC[C@H]2O[C@@H](O[C@H]3[C@H](O1)O[C@H](C)[C@H](OC(C)=O)[C@@H]3O)[C@H](O)[C@@H](OC(=O)C(C)CC)[C@@H]2OC(=O)/C=C/c1ccccc1 (stereo partly drawn) [compound 15] |  |  |  |  | 480 nM | less potently |

Reference: PMC6627486, “Ipomoeassin F Binds Sec61α to Inhibit Protein Translocation” (Journal of the American Chemical Society, 2019)
